# Source: PubChem BioAssay (NCI)
#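 In this assay, cells in 96-well plates receive the compound at five concentrations for 48 hours. Endpoints are linearly interpolated between the surrounding concentrations. At the TGI there is no net growth.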
# Key:
# Experiment in all cases: DTP human tumour cell line panel, 48 h
# 786-0 renal = system: 786-0 renal
# A498 renal = system: A498 renal
# A549 NSCLC = system: A549 NSCLC
# ACHN renal = system: ACHN renal
# BT-549 breast = system: BT-549 breast
# CAKI-1 renal = system: CAKI-1 renal
# CCRF-CEM leukemia = system: CCRF-CEM leukemia
# COLO 205 colon = system: COLO 205 colon
# DU-145 prostate = system: DU-145 prostate
# EKVX NSCLC = system: EKVX NSCLC
# HCC-2998 colon = system: HCC-2998 colon
# HCT-116 colon = system: HCT-116 colon
# HCT-15 colon = system: HCT-15 colon
# HL-60(TB) leukemia = system: HL-60(TB) leukemia
# HOP-62 NSCLC = system: HOP-62 NSCLC
# HOP-92 NSCLC = system: HOP-92 NSCLC
# HS 578T breast = system: HS 578T breast
# HT29 colon = system: HT29 colon
# IGROV1 ovarian = system: IGROV1 ovarian
# K-562 leukemia = system: K-562 leukemia
# KM12 colon = system: KM12 colon
# LOX IMVI melanoma = system: LOX IMVI melanoma
# M14 melanoma = system: M14 melanoma
# MALME-3M melanoma = system: MALME-3M melanoma
# MCF7 breast = system: MCF7 breast
# MDA-MB-231 breast = system: MDA-MB-231 breast
# MDA-MB-435 = system: MDA-MB-435
# MDA-N = system: MDA-N
# MOLT-4 leukemia = system: MOLT-4 leukemia
# NCI-H226 lung = system: NCI-H226 lung
# NCI-H23 lung = system: NCI-H23 lung
# NCI-H460 lung = system: NCI-H460 lung
# NCI/ADR-RES ovarian = system: NCI/ADR-RES ovarian
# OVCAR-3 ovarian = system: OVCAR-3 ovarian
# OVCAR-4 ovarian = system: OVCAR-4 ovarian
# OVCAR-5 ovarian = system: OVCAR-5 ovarian
# OVCAR-8 ovarian = system: OVCAR-8 ovarian
# PC-3 prostate = system: PC-3 prostate
# RPMI-8226 leukemia = system: RPMI-8226 leukemia
# RXF 393 renal = system: RXF 393 renal
# SF-268 CNS = system: SF-268 CNS
# SF-295 CNS = system: SF-295 CNS
# SF-539 CNS = system: SF-539 CNS
# SK-MEL-2 melanoma = system: SK-MEL-2 melanoma
# SK-MEL-28 melanoma = system: SK-MEL-28 melanoma
# SK-MEL-5 melanoma = system: SK-MEL-5 melanoma
# SK-OV-3 ovarian = system: SK-OV-3 ovarian
# SN12C renal = system: SN12C renal
# SNB-19 CNS = system: SNB-19 CNS
# SR leukemia = system: SR leukemia
# SW-620 colon = system: SW-620 colon
# T-47D breast = system: T-47D breast
# TK-10 renal = system: TK-10 renal
# U251 CNS = system: U251 CNS
# UACC-257 melanoma = system: UACC-257 melanoma
# UACC-62 melanoma = system: UACC-62 melanoma
# UO-31 renal = system: UO-31 renal
# NCI-H522 lung = system: NCI-H522 lung
# SNB-75 CNS = system: SNB-75 CNS
smiles,measurement,setting,value
CCCCN1C(=O)CC2[C@@H]3CCc4cc(OC(C)=O)ccc4C3CC[C@]2(C)C1=O (some centres not stated),TGI,786-0 renal,> 10 µM
same,TGI,A498 renal,> 10 µM
same,TGI,A549 NSCLC,> 10 µM
same,TGI,ACHN renal,> 10 µM
same,TGI,BT-549 breast,> 10 µM
same,TGI,CAKI-1 renal,> 10 µM
same,TGI,CCRF-CEM leukemia,> 10 µM
same,TGI,COLO 205 colon,> 10 µM
same,TGI,DU-145 prostate,> 10 µM
same,TGI,EKVX NSCLC,> 10 µM
same,TGI,HCC-2998 colon,> 10 µM
same,TGI,HCT-116 colon,> 10 µM
same,TGI,HCT-15 colon,> 10 µM
same,TGI,HL-60(TB) leukemia,> 10 µM
same,TGI,HOP-62 NSCLC,> 10 µM
same,TGI,HOP-92 NSCLC,> 10 µM
same,TGI,HS 578T breast,> 10 µM
same,TGI,HT29 colon,> 10 µM
same,TGI,IGROV1 ovarian,> 10 µM
same,TGI,K-562 leukemia,> 10 µM
same,TGI,KM12 colon,> 10 µM
same,TGI,LOX IMVI melanoma,> 10 µM
same,TGI,M14 melanoma,> 10 µM
same,TGI,MALME-3M melanoma,> 10 µM
same,TGI,MCF7 breast,> 10 µM
same,TGI,MDA-MB-231 breast,> 10 µM
same,TGI,MDA-MB-435,> 10 µM
same,TGI,MDA-N,> 10 µM
same,TGI,MOLT-4 leukemia,> 10 µM
same,TGI,NCI-H226 lung,> 10 µM
same,TGI,NCI-H23 lung,> 10 µM
same,TGI,NCI-H460 lung,> 10 µM
same,TGI,NCI/ADR-RES ovarian,> 10 µM
same,TGI,OVCAR-3 ovarian,> 10 µM
same,TGI,OVCAR-4 ovarian,> 10 µM
same,TGI,OVCAR-5 ovarian,> 10 µM
same,TGI,OVCAR-8 ovarian,> 10 µM
same,TGI,PC-3 prostate,> 10 µM
same,TGI,RPMI-8226 leukemia,> 10 µM
same,TGI,RXF 393 renal,> 10 µM
same,TGI,SF-268 CNS,> 10 µM
same,TGI,SF-295 CNS,> 10 µM
same,TGI,SF-539 CNS,> 10 µM
same,TGI,SK-MEL-2 melanoma,> 10 µM
same,TGI,SK-MEL-28 melanoma,> 10 µM
same,TGI,SK-MEL-5 melanoma,> 10 µM
same,TGI,SK-OV-3 ovarian,> 10 µM
same,TGI,SN12C renal,> 10 µM
same,TGI,SNB-19 CNS,> 10 µM
same,TGI,SR leukemia,> 10 µM
same,TGI,SW-620 colon,> 10 µM
same,TGI,T-47D breast,> 10 µM
same,TGI,TK-10 renal,> 10 µM
same,TGI,U251 CNS,> 10 µM
same,TGI,UACC-257 melanoma,> 10 µM
same,TGI,UACC-62 melanoma,> 10 µM
same,TGI,UO-31 renal,> 10 µM
CN(C)/N=N/c1nc2c(c(=O)n(C)c(=O)n2C)n1C,TGI,786-0 renal,> 100 µM
same,TGI,A498 renal,> 100 µM
same,TGI,A549 NSCLC,> 100 µM
same,TGI,ACHN renal,> 100 µM
same,TGI,BT-549 breast,> 100 µM
same,TGI,CAKI-1 renal,> 100 µM
same,TGI,CCRF-CEM leukemia,> 100 µM
same,TGI,COLO 205 colon,> 100 µM
same,TGI,DU-145 prostate,> 100 µM
same,TGI,EKVX NSCLC,> 100 µM
same,TGI,HCC-2998 colon,> 100 µM
same,TGI,HCT-116 colon,> 100 µM
same,TGI,HCT-15 colon,> 100 µM
same,TGI,HOP-62 NSCLC,> 100 µM
same,TGI,HS 578T breast,> 100 µM
same,TGI,HT29 colon,> 100 µM
same,TGI,IGROV1 ovarian,> 100 µM
same,TGI,K-562 leukemia,> 100 µM
same,TGI,KM12 colon,> 100 µM
same,TGI,LOX IMVI melanoma,> 100 µM
same,TGI,M14 melanoma,> 100 µM
same,TGI,MALME-3M melanoma,> 100 µM
same,TGI,MCF7 breast,> 100 µM
same,TGI,MDA-MB-231 breast,> 100 µM
same,TGI,MDA-MB-435,> 100 µM
same,TGI,MDA-N,> 100 µM
same,TGI,MOLT-4 leukemia,> 100 µM
same,TGI,NCI-H226 lung,> 100 µM
same,TGI,NCI-H460 lung,> 100 µM
same,TGI,NCI-H522 lung,> 100 µM
same,TGI,NCI/ADR-RES ovarian,> 100 µM
same,TGI,OVCAR-3 ovarian,> 100 µM
same,TGI,OVCAR-4 ovarian,> 100 µM
same,TGI,OVCAR-5 ovarian,> 100 µM
same,TGI,OVCAR-8 ovarian,> 100 µM
same,TGI,PC-3 prostate,> 100 µM
same,TGI,RPMI-8226 leukemia,> 100 µM
same,TGI,RXF 393 renal,> 100 µM
same,TGI,SF-268 CNS,> 100 µM
same,TGI,SF-295 CNS,> 100 µM
same,TGI,SK-MEL-2 melanoma,> 100 µM
same,TGI,SK-MEL-28 melanoma,> 100 µM
same,TGI,SK-MEL-5 melanoma,> 100 µM
same,TGI,SK-OV-3 ovarian,> 100 µM
same,TGI,SN12C renal,> 100 µM
same,TGI,SNB-19 CNS,> 100 µM
same,TGI,SNB-75 CNS,> 100 µM
same,TGI,SR leukemia,> 100 µM
same,TGI,SW-620 colon,> 100 µM
same,TGI,T-47D breast,> 100 µM
same,TGI,TK-10 renal,> 100 µM
same,TGI,U251 CNS,> 100 µM
same,TGI,UACC-257 melanoma,> 100 µM
same,TGI,UACC-62 melanoma,> 100 µM
same,TGI,UO-31 renal,> 100 µM
